In ChEMBL document CHEMBL5303573, “Mapping human microbiome drug metabolism by gut bacteria and their genes” (Nature, 2019):

Legend:
[1] = parabacteroides johnsonii, 12 h, 2 µM
Description: The drug is tested on Parabacteroides johnsonii strain: DSM18315 for biotransformation. The drug concentrations were measured before and after a 12-h incubation by liquid-chromatography-coupled mass spectrometry (LC–MS)

[2] = The drug is tested on Bacteroides pectinophilus strain: ATCC43243 for biotransformation. The drug concentrations were measured before and after a 12-h incubation by liquid-chromatography-coupled mass spectrometry (LC–MS); settings: 2 µM
[3] = The drug is tested on Alistipes indistinctus strain: DSM22520 for biotransformation. The drug concentrations were measured before and after a 12-h incubation by liquid-chromatography-coupled mass spectrometry (LC–MS); settings: 2 µM
[4] = limosilactobacillus reuteri cf48-3a, 12 h, 2 µM
Description: The drug is tested on Lactobacillus reuteri CF48-3A strain: BEI HM-102 for biotransformation. The drug concentrations were measured before and after a 12-h incubation by liquid-chromatography-coupled mass spectrometry (LC–MS)

[5] = The drug is tested on Ruminococcus gnavus strain: ATCC29149 for biotransformation. The drug concentrations were measured before and after a 12-h incubation by liquid-chromatography-coupled mass spectrometry (LC–MS); settings: mediterraneibacter gnavus, 2 µM
[6] = bacteroides fragilis, 12 h, 2 µM
Description: The drug is tested on Bacteroides fragilis strain: NCTC 9343 for biotransformation. The drug concentrations were measured before and after a 12-h incubation by liquid-chromatography-coupled mass spectrometry (LC–MS)

[7] = The drug is tested on Bacteroides ovatus strain: ATCC8483 for biotransformation. The drug concentrations were measured before and after a 12-h incubation by liquid-chromatography-coupled mass spectrometry (LC–MS); settings: 2 µM
[8] = The drug is tested on Anaerotruncus colihominis strain: DSM17241 for biotransformation. The drug concentrations were measured before and after a 12-h incubation by liquid-chromatography-coupled mass spectrometry (LC–MS); settings: 2 µM
[9] = The drug is tested on Edwardsiella tarda strain: ATCC23685 for biotransformation. The drug concentrations were measured before and after a 12-h incubation by liquid-chromatography-coupled mass spectrometry (LC–MS); settings: 2 µM
[10] = The drug is tested on Providencia stuartii strain: ATCC25827 for biotransformation. The drug concentrations were measured before and after a 12-h incubation by liquid-chromatography-coupled mass spectrometry (LC–MS); settings: 2 µM
[11] = The drug is tested on Eubacterium rectale strain: ATCC33656 for biotransformation. The drug concentrations were measured before and after a 12-h incubation by liquid-chromatography-coupled mass spectrometry (LC–MS); settings: agathobacter rectalis, 2 µM
[12] = The drug is tested on Enterococcus faecalis strain: V583 for biotransformation. The drug concentrations were measured before and after a 12-h incubation by liquid-chromatography-coupled mass spectrometry (LC–MS); settings: 2 µM
[13] = The drug is tested on Parabacteroides merdae strain: ATCC43184 for biotransformation. The drug concentrations were measured before and after a 12-h incubation by liquid-chromatography-coupled mass spectrometry (LC–MS); settings: 2 µM
[14] = The drug is tested on Anaerococcus hydrogenalis strain: DSM7454 for biotransformation. The drug concentrations were measured before and after a 12-h incubation by liquid-chromatography-coupled mass spectrometry (LC–MS); settings: 2 µM
[15] = The drug is tested on Bacteroides coprophilus strain: DSM18228 for biotransformation. The drug concentrations were measured before and after a 12-h incubation by liquid-chromatography-coupled mass spectrometry (LC–MS); settings: 2 µM
[16] = The drug is tested on Ruminococcus torques strain: ATCC27756 for biotransformation. The drug concentrations were measured before and after a 12-h incubation by liquid-chromatography-coupled mass spectrometry (LC–MS); type: ADME; parameters: dose 2 uM, timepoint 0 vs 12 hours; settings: 2 µM
[17] = The drug is tested on Clostridium ramosum strain: DSM1402 for biotransformation. The drug concentrations were measured before and after a 12-h incubation by liquid-chromatography-coupled mass spectrometry (LC–MS); settings: thomasclavelia ramosa, 2 µM
[18] = The drug is tested on Bacteroides dorei strain: DSM17855 for biotransformation. The drug concentrations were measured before and after a 12-h incubation by liquid-chromatography-coupled mass spectrometry (LC–MS); settings: phocaeicola dorei, 2 µM
[19] = The drug is tested on Bacteroides uniformis strain: ATCC8492 for biotransformation. The drug concentrations were measured before and after a 12-h incubation by liquid-chromatography-coupled mass spectrometry (LC–MS); settings: 2 µM
[20] = bifidobacterium adolescentis, 12 h, 2 µM
Description: The drug is tested on Bifidobacterium adolescentis strain: ATCC 15703 for biotransformation. The drug concentrations were measured before and after a 12-h incubation by liquid-chromatography-coupled mass spectrometry (LC–MS)

| SMILES | Bacterial Biotransformation [1] | Bacterial Biotransformation [2] | Bacterial Biotransformation [3] | Bacterial Biotransformation [4] | Bacterial Biotransformation [5] | Bacterial Biotransformation [6] | Bacterial Biotransformation [7] | Bacterial Biotransformation [8] | Bacterial Biotransformation [9] | Bacterial Biotransformation [10] | Bacterial Biotransformation [11] | Bacterial Biotransformation [12] | Bacterial Biotransformation [13] | Bacterial Biotransformation [14] | Bacterial Biotransformation [15] | Bacterial Biotransformation [16] | Bacterial Biotransformation [17] | Bacterial Biotransformation [18] | Bacterial Biotransformation [19] | Bacterial Biotransformation [20] |
| --- | --- | --- | --- | --- | --- | --- | --- | --- | --- | --- | --- | --- | --- | --- | --- | --- | --- | --- | --- | --- |
| CC[C@H](C)C(=O)O[C@H]1CCC=C2C=C[C@H](C)[C@H](CC[C@@H]3C[C@@H](O)CC(=O)O3)[C@H]21 [MEVASTATIN] | Compound metabolized | Compound metabolized | Compound metabolized | Compound metabolized | Compound metabolized | Compound metabolized | Compound metabolized | Compound metabolized | Compound metabolized | Compound metabolized | Compound metabolized | Compound metabolized | Compound metabolized | Compound metabolized | Compound metabolized | Compound metabolized | Compound metabolized | Compound metabolized | Compound metabolized | – |
| Nc1ccc(/N=N/c2ccccc2)c(N)n1 [PHENAZOPYRIDINE] | Compound metabolized | Compound NOT metabolized | Compound metabolized | Compound NOT metabolized | Compound metabolized | Compound metabolized | Compound metabolized | Compound metabolized | – | Compound NOT metabolized | Compound metabolized | Compound metabolized | Compound metabolized | Compound metabolized | Compound NOT metabolized | Compound metabolized | Compound metabolized | Compound metabolized | Compound metabolized | – |
| CCS(=O)(=O)CCn1c([N+](=O)[O-])cnc1C [TINIDAZOLE] | Compound metabolized | Compound NOT metabolized | Compound metabolized | Compound NOT metabolized | Compound metabolized | Compound metabolized | Compound metabolized | Compound metabolized | – | Compound NOT metabolized | Compound metabolized | Compound metabolized | Compound metabolized | Compound metabolized | Compound NOT metabolized | Compound metabolized | Compound metabolized | Compound metabolized | Compound metabolized | Compound metabolized |
